Data set [1] concerns E. coli ΔtolC-pore harboring the lgt expression plasmid pCHAP9231. Description: Ectopic lgt expression MIC (high-copy suppression, pCHAP9231). The settings on record: pCHAP9231, 0.4% arabinose, LB. In kind it is cell-based.
Data set [2] has as its system E. coli ΔtolC-pore. The data set is described as follows: Live cell fluorescence microscopy, cell width. In kind it is cell-based. The conditions noted are these: increasing concentrations, 1 h, DAPI and FM4-64 stain. As for the experimental part: Figure 4 MAC-0452936 inhibited prolipoprotein diacylglyceryl transferase, Lgt (A) Growth inhibition of E. coli ΔtolC-pore, three independent MAC-0452936 resistance mutants with a V109A substitution in Lgt (2,959,071A→G), a mutant with an A37T substitution (2,959,288C→T), and a mutant with a G138A substitution (2,958,984C→G). The experiment was conducted in biological triplicate. Data are represented as mean ± SEM. (B) Structure of Lgt from E. coli with two phosphatidyl-glycerol (PG) moieties bound (PDB: 5AZB).[49] Mutated residues from spontaneous resistance mutants are highlighted in blue on proximal α-helices, with the blue sphere highlighting the space in between the mutated residues where both PG moieties reside. […] The width of at least 240 cells was measured at each MAC-0452936 concentration, with specific n values for each concentration of MAC-0452936 listed in the figure. […]
An overnight culture of E. coli ΔtolC-pore was prepared, then diluted (1:100) into fresh LB media and grown to the mid-exponential phase of growth (OD600 ∼0.5). […] Samples were imaged using a Nikon Eclipse Ti inverted microscope at 100× magnification, with a minimum of 200 cells counted per image. Images were quantified with ImageJ, using the following macro. […]

Data set [3] concerns human red blood cells. The data set is described as follows: Haemolysis assay. Type of data set: cell-based. The settings on record: 37°C, 1 h. As for the experimental part: (§1) To determine the haemolytic activity and cytotoxicity of MAC-0452936, pooled human blood and HEK293t cells were used, respectively. Fresh pooled human blood for haemolytic assay was acquired from […] Technologies, whilst, HEK293t cells were originally acquired from ATCC (Cat# CRL-3216) and were regularly grown in […] (DMEM) with 10% fetal bovine serum (FBS), L-glutamine and incubated at 37°C. Cell lines are regularly tested for mycoplasma contamination.
Haemolytic activity of MAC-0452936 was assessed as described previously. Fresh human blood (10 mL, Stem Cell Technologies, USA) was centrifuged at 4,000 rpm for 10 min. The supernatant was discarded, and the pellet was rinsed three times with 1× PBS. Subsequently, the pellet was diluted 1:5 (v/v) in 1× PBS and RBC suspensions (0.5 mL each) were incubated with varying concentrations of test compounds at 37°C for 1 h. Following this, the cell suspensions were centrifuged at 5,000g for 10 min and the supernatant was meticulously collected without disturbing the pellet. Hemolysis was assessed by measuring the absorbance of the released hemoglobin in the supernatant at 540 nm using a spectrophotometer. Triton X-100 (0.1%) was used as the positive control causing 100 per cent hemolysis. All experiments were performed in triplicates.

For data set [4], the system named is E. coli ΔtolC-pore. The data set is described as follows: MIC assay, E. coli ΔtolC-pore. In kind it is cell-based. As for the experimental part: For MIC assays, cultures of bacteria were grown in LB broth. Overnight cultures were diluted (1:100) into fresh LB media and grown to the mid-log phase of growth (OD600 ∼0.5). Subcultures were then normalized to an OD600 of 0.1, and diluted (1:5000) into assay media. Assay plates were then incubated for 18 h at 37°C, then OD600 was measured using a Biotek Neo plate reader.

Data set [5] deals with HEK293t cells. Description: In vitro cytotoxicity (PrestoBlue cell viability). In kind it is cell-based, human. The conditions noted are these: 24 h. As for the experimental part: as §1
The cytotoxicity of MAC-0452936 on HEK293t cells was determined by performing a cell viability assay using PrestoBlue Cell Viability Reagent (Invitrogen). 3 × 10^4 cells/mL were seeded in tissue culture-treated 96-well plates (Nunc; white opaque with clear bottom) in […] (DMEM) with 10% fetal bovine serum (FBS), L-glutamine and incubated at 37°C for 24 h in 5% CO2. The cells were then treated with varying concentrations of MAC-0452936 and similar percentage of DMSO as in drug (solvent control) for 24 h at 37°C. PrestoBlue reagent (20 μL) was added to the wells and incubated for 1 h in the CO2 incubator before reading the plates at excitation/emission wavelength of 560/590 nm on the Biotek Synergy Neo2 plate reader. Fluorescence values were expressed as percentage and inhibition with respect to solvent control was calculated.

Converted amounts (≈) assume the structure as drawn.

With `COc1ccc(C(=O)O/N=C(\c2cccs2)C(C)(C)C)cc1` [MAC-0452936, (Z)-2-Pivaloylthiophene O-(4-methoxybenzoyl) oxime], in data set [1], the “suppression of activity by induction of lgt expression with arabinose” value is recorded as “about 8 fold”. In addition, the “effect on cell width and morphology” value in data set [2] is “dose-dependent increase in cell width”. Also, the “hemolysis of human red blood cells” value in data set [3] was “did not observe hemolysis”. Also, the “MIC, E. coli ΔtolC-pore” value in data set [4] (LB, 18 h) worked out at 0.5 µg/mL (≈ 1.58 µM). The “activity against E. coli ΔtolC-pore” value in data set [4] (growth inhibition, in words) is “active”. For the same molecule, the “concentrations giving a modest decrease in the viability of HEK-293 cells” value in data set [5] was “greater than 8 μg/mL”. The “cytotoxicity to HEK-293 cells” value in data set [5] (at MIC concentrations) is “did not observe”.

For the origin of these results see paper PMC11456916, “A screen for cell envelope stress uncovers an inhibitor of prolipoprotein diacylglyceryl transferase, Lgt, in Escherichiacoli” (iScience, 2024).
